# Experimental data as given in US9980943B2, “Methods of treating muscular dystrophy” (BOARD OF REGENTS OF THE NEVADA SYSTEM OF HIGHER EDUCATION, …, priority 2013, dated 2018).
# Read-outs that look alike come from different tables or passages of the source.
# How the values were obtained:
# Assay type in all cases: cell-based, mouse
# [1] = test system: β-galactosidase in CMV-LacZ C2C12 myotubes; test: CMV-LacZ secondary screen in C2C12 myotubes (β-Gal stabilizing assay); details: C2C12 CMV-LacZ myotubes, fold relative to DMSO; for fold induction at 5 µM / fold induction at 10 µM / fold induction at 20 µM / fold induction at 40 µM: Mus musculus
# Method in brief: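 β-gal stabilization was measured in C2C12 myoblasts or myotubes stably transfected with a CMV-driven LacZ construct, using the FDG β-gal assay. Compounds were tested in dose-response at 0.5, 1, 5, 10, 20 and 40 μM, with two replicates per point.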
# [2] = test system: α7 integrin (LacZ reporter in α7+/LacZ myotubes); test: Myotube α7 integrin FDG assay (Burkin assay in myotubes, 96-well); details: myotubes; for fold induction at 0.5 µM / fold induction at 1 µM / fold induction at 5 µM / fold induction at 10 µM / fold induction at 20 µM / fold induction at 40 µM: Mus musculus, Myotube, read-out: Burkin Assay in Myotubes, α7 integrin LacZ reporter signal relative to DMSO
# [3] = test system: α7 integrin (LacZ reporter in α7βgal+/− myoblasts); test: Myoblast α7+/LacZ integrin FDG assay (Burkin assay in myoblasts, 96-well); details: α7+/LacZ myoblasts, 96-well; for fold induction at 0.5 µM / fold induction at 1 µM / fold induction at 5 µM / fold induction at 10 µM / fold induction at 20 µM / fold induction at 40 µM: Mus musculus, Myoblast, 48 h, read-out: Burkin Assay in Myoblasts, signal relative to DMSO
Structure (SMILES),"CMV-LACZ in Myotubes, signal relative to DMSO ([1]; 5 uM)","CMV-LACZ in Myotubes, signal relative to DMSO ([1]; 10 uM)","CMV-LACZ in Myotubes, signal relative to DMSO ([1]; 20 uM)","CMV-LACZ in Myotubes, signal relative to DMSO ([1]; 40 uM)","Burkin Assay in Myotubes, α7 integrin LacZ reporter signal relative to DMSO ([2]; 0.5 uM)","Burkin Assay in Myotubes, α7 integrin LacZ reporter signal relative to DMSO ([2]; 1 uM)","Burkin Assay in Myotubes, α7 integrin LacZ reporter signal relative to DMSO ([2]; 5 uM)","Burkin Assay in Myotubes, α7 integrin LacZ reporter signal relative to DMSO ([2]; 10 uM)","Burkin Assay in Myotubes, α7 integrin LacZ reporter signal relative to DMSO ([2]; 20 uM)","Burkin Assay in Myotubes, α7 integrin LacZ reporter signal relative to DMSO ([2]; 40 uM)","Burkin Assay in Myoblasts, signal relative to DMSO ([3]; 0.5 uM)","Burkin Assay in Myoblasts, signal relative to DMSO ([3]; 1 uM)","Burkin Assay in Myoblasts, signal relative to DMSO ([3]; 5 uM)","Burkin Assay in Myoblasts, signal relative to DMSO ([3]; 10 uM)","Burkin Assay in Myoblasts, signal relative to DMSO ([3]; 20 uM)","Burkin Assay in Myoblasts, signal relative to DMSO ([3]; 40 uM)",fold induction at 0.5 µM ([2]; 0.5 uM),fold induction at 1 µM ([2]; 1 uM),fold induction at 5 µM ([2]; 5 uM),fold induction at 10 µM ([2]; 10 uM),further results
Cc1ccc(S(=O)(=O)NC(C)C(=O)NC(C)c2cccs2)cc1 (stereo not shown) [MLS001221867-01],0.9954,0.9834,1.0515,1.0745,0.9728,0.9422,0.9593,0.9374,1.02,0.9915,1.001,1.024,0.9275,0.922,0.9616,0.8943,,,,,
COc1cc(C)c(NC(=O)COc2ccc3c(c2)OCO3)cc1C [MLS001223425-01],,,,,,,,,,,,,,,,,1.08,1.22,0.914,1.38,"fold induction at 5 µM ([1]; C2C12, read-out: CMV-LACZ in Myotubes, signal relative to DMSO, 5 uM): 0.956; fold induction at 10 µM ([1]; C2C12, read-out: CMV-LACZ in Myotubes, signal relative to DMSO, 10 uM): 1.04; fold induction at 20 µM ([1]; C2C12, read-out: CMV-LACZ in Myotubes, signal relative to DMSO, 20 uM): 0.979; fold induction at 40 µM ([1]; C2C12, read-out: CMV-LACZ in Myotubes, signal relative to DMSO, 40 uM): 1.01; fold induction at 20 µM ([2]; 20 uM): 1.14; fold induction at 40 µM ([2]; 40 uM): 1.18; fold induction at 0.5 µM ([3]; 0.5 uM): 1.06; fold induction at 1 µM ([3]; 1 uM): 1.08; fold induction at 5 µM ([3]; 5 uM): 1.06; fold induction at 10 µM ([3]; 10 uM): 1.15; fold induction at 20 µM ([3]; 20 uM): 1.22; fold induction at 40 µM ([3]; 40 uM): 1.13"
O=c1nc(C2CCN(S(=O)(=O)c3ccc4c(c3)OCCO4)CC2)nc2n(Cc3c(F)cccc3Cl)[nH]nc1-2 [MLS001223482-01],,,,,,,,,,,,,,,,,1.06,1.15,1.27,1.53,"fold induction at 5 µM ([1]; 5 uM, read-out: CMV-LACZ in Myotubes, signal relative to DMSO): 0.907; fold induction at 10 µM ([1]; 10 uM, read-out: CMV-LACZ in Myotubes, signal relative to DMSO): 0.793; fold induction at 20 µM ([1]; 20 uM, read-out: CMV-LACZ in Myotubes, signal relative to DMSO): 0.858; fold induction at 40 µM ([1]; 40 uM, read-out: CMV-LACZ in Myotubes, signal relative to DMSO): 0.809; fold induction at 20 µM ([2]; 20 uM): 1.13; fold induction at 40 µM ([2]; 40 uM): 0.967; fold induction at 0.5 µM ([3]; 0.5 uM): 1.06; fold induction at 1 µM ([3]; 1 uM): 1.09; fold induction at 5 µM ([3]; 5 uM): 1.01; fold induction at 10 µM ([3]; 10 uM): 1.02; fold induction at 20 µM ([3]; 20 uM): 1.29; fold induction at 40 µM ([3]; 40 uM): 0.98"
CC(C)(C)n1cnc2cc(NC(=O)c3ccco3)ccc21 [MLS001223567-01],1.002,0.8931,1.241,1.012,0.9533,0.9978,0.8636,0.924,0.9991,0.9931,1.044,1.082,0.9608,0.9203,0.8579,0.864,,,,,
